Molecular target: T1, Human AMPK α2β2γ1 (Homo sapiens, UniProt O43741+P54646)
T1 construct: The full length cDNAs of human AMPK β2 (NM_005399.3) and human AMPK α2 (NM_006252.3); The full length cDNAs of human AMPK β2 (NM_005399.3); the full length cDNA of human AMPK γ1 (NM_002733.3) had been inserted into pET28b(+); 6xHis (N); made in house; host or cells: Escherichia coli BL21 CodonPlus (DE3)-RTL (AMPK); BL21 Star (DE3) (CaMKKβ)
Experiment: Test Example 2: evaluation of an activator for AMP-activated protein kinase (AMPK), human AMPK α2β2γ1 phosphorylated with CaMKK2, FL-Peptide 7 mobility shift
Assay type: biochemical
Details: for EC150 (compound concentration showing 150% relative to the control (100%)): human AMPK α2β2γ1, 0.2 mM ATP final, 25° C., 2 hours; for Emax: read-out: Emax (maximum rate of increase in activity within the measurement range)
Method: The full length cDNAs of human AMPK β2 (NM_005399.3) and human AMPK α2 (NM_006252.3) were inserted into the MCS1 and MCS2 of the pETDuet-1 vector to prepare a human AMPK β2 and human AMPK α2 (6× His tag at the 5′ terminus) expressing plasmid. The plasmid was cotransfected with an expression plasmid, in which the full length cDNA of human AMPK γ1 (NM_002733.3) had been inserted into pET28b(+), into BL21 CodonPlus (DE3)-RTL to obtain an expression strain. The expression strain was cultured in TB medium, followed by induction with 0.5 mM IPTG, and cultured at 25° C. for 3 hours and then harvested.
An expression vector, in which the full length cDNA of human CAMKK β (NM_172226.1) had been inserted into pGEX-6P-3, was transfected into BL21 Star (DE3). The expression strain was cultured in TB medium, followed by induction with 0.5 mM IPTG, and cultured at 25° C. for 3 hours and then harvested.
Thus, phosphorylation treatment was carried out as pretreatment.
Human AMPK α2β2γ1 in an amount to give a conversion rate of approximately 10% by reaction for 2 hours, and CaMKK2 in an amount capable of sufficiently imparting activity to AMPK for one hour were mixed in a buffer solution consisting of a 50 mM HEPES-NaOH buffer solution (pH 7.0), 100 mM NaCl, 5 mM magnesium chloride, 0.1% bovine serum albumin, 0.2 mM sodium orthovanadate(V), 1 mM ethylene glycol-bis(2-aminoethyl ether)-N,N,N′,N′-tetraacetic acid (EGTA), 5 mM disodium β-glycerophosphate, 1 mM dithiothreitol and 0.2 mM ATP, and the obtained liquid was left to stand at 25° C. for 1 to 1.5 hours to sufficiently phosphorylate AMPK.
The obtained liquid was left to stand for 10 minutes.
The obtained liquid was allowed to react at 25° C. for 2 hours, and 10 μl of 20 mM EDTA was then added thereto to stop the reaction.
To detect phosphorylated fluorescent substrates, the reaction liquid was applied to a measuring device, LabChip EZ Reader II manufactured by Caliper Life Science, Inc., for detecting fluorescence by using differences in mobility due to differences in charge. The setting conditions for the device were pressure, −1.5 PSI; upstream voltage, −2250 V; downstream voltage, −400 V; post sample buffer sip time, 40 seconds; final delay, 120 seconds; and peak order, Product First.
A conversion rate was calculated from the peak heights of the resulting substrate and product. The conversion rate when not containing a compound was used as a control, and a concentration dependent curve was made by plotting the rate of increase in activity to the control at each concentration of a compound.

[1] = human AMPK α2β2γ1, relative to control (100%)

T1 sequence (P54646 whole entry): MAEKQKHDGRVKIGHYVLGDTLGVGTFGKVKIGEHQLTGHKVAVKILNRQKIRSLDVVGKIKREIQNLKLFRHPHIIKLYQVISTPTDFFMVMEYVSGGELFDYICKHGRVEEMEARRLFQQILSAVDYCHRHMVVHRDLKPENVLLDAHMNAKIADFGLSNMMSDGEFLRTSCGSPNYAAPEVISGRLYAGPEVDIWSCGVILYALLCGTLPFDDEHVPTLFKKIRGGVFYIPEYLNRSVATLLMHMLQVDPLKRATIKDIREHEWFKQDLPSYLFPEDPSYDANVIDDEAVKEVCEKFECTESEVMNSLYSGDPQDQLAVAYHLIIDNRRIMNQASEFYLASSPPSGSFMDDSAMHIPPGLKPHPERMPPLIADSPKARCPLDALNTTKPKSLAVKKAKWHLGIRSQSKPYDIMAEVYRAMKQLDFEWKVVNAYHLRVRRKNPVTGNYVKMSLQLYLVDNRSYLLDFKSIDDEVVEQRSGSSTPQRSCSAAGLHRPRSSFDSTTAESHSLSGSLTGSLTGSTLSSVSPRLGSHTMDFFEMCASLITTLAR
T1 sequence (O43741 whole entry): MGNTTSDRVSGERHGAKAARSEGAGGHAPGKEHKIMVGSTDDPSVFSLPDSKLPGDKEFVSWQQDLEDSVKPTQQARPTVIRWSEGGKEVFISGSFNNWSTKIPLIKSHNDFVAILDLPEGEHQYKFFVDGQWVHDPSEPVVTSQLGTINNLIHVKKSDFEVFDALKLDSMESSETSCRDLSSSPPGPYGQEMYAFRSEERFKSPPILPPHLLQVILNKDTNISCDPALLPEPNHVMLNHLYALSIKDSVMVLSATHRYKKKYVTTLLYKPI
T1 sequence (P54619 whole entry partner): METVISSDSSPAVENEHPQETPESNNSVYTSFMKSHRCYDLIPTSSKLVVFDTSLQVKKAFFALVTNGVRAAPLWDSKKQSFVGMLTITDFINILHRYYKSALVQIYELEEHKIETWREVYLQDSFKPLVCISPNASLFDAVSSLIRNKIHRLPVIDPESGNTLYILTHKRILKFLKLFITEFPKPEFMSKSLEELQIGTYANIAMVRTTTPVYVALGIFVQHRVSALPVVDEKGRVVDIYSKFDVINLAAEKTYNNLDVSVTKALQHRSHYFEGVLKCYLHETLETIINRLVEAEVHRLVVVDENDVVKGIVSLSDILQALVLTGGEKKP

| Compound | EC150 (compound concentration showing 150% relative to the control (100%)) | Emax [1] | Emax (maximum rate of increase in activity within the measurement range) [1] |
| --- | --- | --- | --- |
| CS(C)(=O)=Nc1ccc(-c2ccc(-c3nc4cc(O[C@@H]5CO[C@H]6[C@@H]5OC[C@H]6O)[nH]c4cc3F)c(F)c2)cc1 [Compound I-4-5] | 3.2 nM | 510% | – |
| CS(C)(=O)=NC1CC=C(c2ccc(-c3nc4cc(O[C@@H]5CO[C@H]6[C@@H]5OC[C@H]6O)[nH]c4cc3F)cc2)CC1 (stereo partly drawn) [Compound I-4-17] | 2.9 nM | 511% | – |
| CN=S(C)(=O)c1ccc(-c2ccc(-c3nc4cc(O[C@@H]5CO[C@H]6[C@@H]5OC[C@H]6O)[nH]c4cc3C(F)(F)F)cc2)cc1 (stereo partly drawn) [Compound I-4-18] | 9.5 nM | 598% | – |
| CS(=O)(=NCCO)c1ccc(-c2ccc(-c3nc4cc(O[C@@H]5CO[C@H]6[C@@H]5OC[C@H]6O)[nH]c4cc3F)cc2)cc1 (stereo partly drawn) [Compound I-4-31] | 3.1 nM | 674% | – |
| CNS(=O)(=O)Nc1ccc(-c2ccc(-c3nc4cc(O[C@@H]5CO[C@H]6[C@@H]5OC[C@H]6O)[nH]c4cc3F)cc2)cc1 [Compound I-4-34] | 4 nM | 431% | – |
| COC(=O)Nc1ccc(-c2ccc(-c3nc4cc(O[C@@H]5CO[C@H]6[C@@H]5OC[C@H]6O)[nH]c4cc3F)cc2)cc1 [Compound I-4-35] | 10 nM | 447% | – |
| CN=S(C)(=O)c1ccc(-c2ccc(-c3nc4cc(O[C@@H]5CO[C@H]6[C@@H]5OC[C@H]6O)[nH]c4cc3F)cc2)cc1 (stereo partly drawn) [Compound I-4-36] | 2.3 nM | 510% | – |
| CN=S(C)(=O)c1ccc(-c2ccc(-c3nc4cc(O[C@@H]5CO[C@H]6[C@@H]5OC[C@H]6O)[nH]c4cc3F)cc2)cc1 (stereo partly drawn) [Compound I-4-37] | 1.5 nM | – | 502% |
| CNS(=O)(=O)c1ccc(-c2ccc(-c3nc4cc(O[C@@H]5CO[C@H]6[C@@H]5OC[C@H]6O)[nH]c4cc3F)cc2)cc1 [Compound I-4-39] | 1.9 nM | 479% | – |
| CS(=O)(=O)c1ccc(-c2ccc(-c3nc4cc(O[C@@H]5CO[C@H]6[C@@H]5OC[C@H]6O)[nH]c4cc3F)cc2)nc1 [Compound I-4-41] | 1.4 nM | 441% | – |
| CCS(C)(=O)=Nc1ccc(-c2ccc(-c3nc4cc(O[C@@H]5CO[C@H]6[C@@H]5OC[C@H]6O)[nH]c4cc3F)cc2)cc1 (stereo partly drawn) [Compound I-4-43] | 1.3 nM | 453% | – |
| NC(=O)Nc1ccc(-c2ccc(-c3nc4cc(O[C@@H]5CO[C@H]6[C@@H]5OC[C@H]6O)[nH]c4cc3F)cc2)cc1 [Compound I-4-44] | 1.6 nM | 518% | – |
| COC(=O)NC1CCN(c2ccc(-c3nc4cc(O[C@@H]5CO[C@H]6[C@@H]5OC[C@H]6O)[nH]c4cc3F)cc2)CC1 [Compound I-4-53] | 10 nM | 509% | – |
| CS(=O)(=O)Nc1ccc(-c2ccc(-c3nc4cc(O[C@@H]5CO[C@H]6[C@@H]5OC[C@H]6O)[nH]c4cc3F)cc2)nc1 [Compound I-4-56] | 5.8 nM | 396% | – |
| COC(=O)NC1CC=C(c2ccc(-c3nc4cc(O[C@@H]5CO[C@H]6[C@@H]5OC[C@H]6O)[nH]c4cc3F)cc2)CC1 (stereo partly drawn) [Compound I-4-58] | 4.3 nM | 486% | – |
